Test results taken from paper PMC7881127, “Cholesterol as a modulator of cannabinoid receptor CB2 signaling” (Scientific Reports, 2021).
“Also recorded” adds a separate entry of the source.

Experiments:
CB2 receptor = system: CB2 receptor; design: method as in PMID 30639103, PMID 18931146; settings: previously reported; cited from earlier work
hCB2 [1] = target: T1, hCB2 (Homo sapiens, UniProt P34972); assay: [35S]GTPγS binding assay in hCB2-CHO-K1 cell membranes; format: biochemical; settings: for Emax: read-out: GTPγS binding Emax; for Functional effect on G-protein signaling (pharmacological category) / Reduced basal signaling: hCB2-expressing CHO cell membranes (PerkinElmer)
T1 construct: purchased PerkinElmer ES111-M400UA; host or cells: CHO-K1 cells stably transfected
T1 sequence (P34972 whole entry): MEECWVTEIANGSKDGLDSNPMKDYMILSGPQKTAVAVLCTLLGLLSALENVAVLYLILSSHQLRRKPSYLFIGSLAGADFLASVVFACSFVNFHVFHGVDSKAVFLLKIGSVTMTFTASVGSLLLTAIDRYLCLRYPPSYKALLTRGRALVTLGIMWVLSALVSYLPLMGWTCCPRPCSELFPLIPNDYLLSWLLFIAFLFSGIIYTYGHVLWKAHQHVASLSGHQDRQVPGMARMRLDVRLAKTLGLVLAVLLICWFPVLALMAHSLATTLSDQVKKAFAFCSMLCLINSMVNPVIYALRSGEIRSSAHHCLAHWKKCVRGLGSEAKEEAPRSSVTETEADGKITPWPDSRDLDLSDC
Procedure: Figure 2 Affinity and functional effects of novel MRI ligands on CB2 receptor in CHO cell membranes. (a) binding affinities (nM) and Emax (% and nM) of [^35S]-GTPγS binding to CHO membranes (PerkinElmer, Cat. No ES111-M400UA) expressing hCB2. (b) [^35S]-GTPγS binding to membranes as a factor of ligand concentration. Binding of [^35S]-GTPγS was determined as described in “Methods”. Non-specific binding was defined as 0% activity. The assay of GTPγS non-specific binding contains non-radioactive GTPγS.
[^35S] GTPγS binding was assayed as described earlier[65] with slight modifications. Briefly, hCB2-CHO-K1 cell membranes (4 µg) were incubated with 0.05 nM [^35S] GTPγS, and the indicated concentrations of ligands in TEM buffer (50 mM Tris–HCl, 0.2 mM EGTA, and 9 mM MgCl2, pH 7.4) containing 100 µM GDP, 150 mM NaCl, and 0.1% (w/v) bovine serum albumin in a total volume of 1 ml for 60 min at 30 °C.

cannabinoid receptor CB2 = cannabinoid receptor CB2 (Homo sapiens, UniProt P34972); assay: [35S]GTP nucleotide exchange (GEF) G protein activation assay on CB2 in cell membrane preparations; format: biochemical; design: purchased PerkinElmer; Millipore ChemiScreen; Applied Cell Sciences; Signal Screen (Sf9); E. coli BL21 (DE3) and Expi293F membranes were made in house; ES111-M400UA; A318; 6110130; host or cells: CHO, CHO-K1, Sf9, Expi293F, Expi293F GNTI-, E. coli BL21 (DE3); settings: for Pharmacological category in GEF assay: ligand 2 μM
Chain of cannabinoid receptor CB2 (P34972 whole entry): as above
Source text: To better understand the reason for these discrepancies, we assessed the activation of CB2 receptor by the in vitro G protein activation assay that measures the rates of nucleotide exchange on the Gα subunit of G protein (GEF assay) as described previously[33],[34]. The assay reports the rates of formation of the complex of [^35S]-GTPγS, a homolog of GTP, with the Gα subunit of G protein. Typical assay conditions require small (nanogram) quantities of the receptor protein either in cell membranes or reconstituted into lipid bilayers. The readout of the assay is the amount of the non-hydrolysable complex of Gα with [^35S]-GTPγS which, under selected experimental conditions, is proportional to the amount of activated receptor in the assay.
Figure 3 GEF of CB2 expressed in: (a) E. coli membranes and (b) CHO membranes (Millipore EMD). 2 μg of total protein per assay. Each point represents an average of four independent measurements (n = 4). Ligands were added at a concentration of 2 μM to ensure saturation of the receptor, and G protein was added as described in “Methods”. The dotted line indicates the rates of activation of G protein in the absence of a ligand. The rates of activation with […] are set to 100%, and rates of activation in the presence of SR-144,528 to 0%.
Figure 4 GEF on CB2 expressed in different cell lines. An amount of 2 μg of membrane protein per assay was used. Each data points represents an average of four independent measurements (n = 4) with error rates indicated by the bars. 100% represents full activation in the presence of 2 μM of CP-55,940, and 0%–with 2 μM SR-144,528.
The subunits of G protein were expressed and purified as described previously. The nucleotide exchange assay was performed as previously described.

hCB2 [2] = target: T1, hCB2; assay: Radioligand ([3H]CP-55,940) displacement binding in hCB2-CHO-K1 cell membranes; settings: hCB2-expressing CHO cell membranes (PerkinElmer), [3H]CP-55,940 displacement; read-out: CB2R binding hCB2R-Ki
Procedure: The assay was performed as described previously. […] Plasma membranes were from cultured CHO-K1 cells stably transfected with human CB2R (Perkin Elmer). Two microgram plasma membrane protein was used in a 1 mL reaction mixture. Ki values were derived by computerized curve fitting and using the Cheng-Prusoff equation to account for the affinity of the radioligand, using the GraphPad Prism 8 program (GraphPad Prism Software Inc.).

microglia = system: microglia; design: method as in PMID 16343349; settings: cited from earlier work
natural killer cells = system: natural killer cells; design: method as in PMID 15749836; settings: cited from earlier work
[3] = CB2 in CHO membranes (EMD Millipore)
[4] = CB2 in E. coli BL21 (DE3) membranes (untreated)

| Molecule | Activity on the CB2 receptor (category) (CB2 receptor) | Emax (hCB2 [1]) [%] | EC50 (hCB2 [1]) [pM] | Functional effect on G-protein signaling (pharmacological category) (hCB2 [1]) | Ki (hCB2 [2]) [pM] | Reduced basal signaling (hCB2 [1]) [%] | also measured |
| --- | --- | --- | --- | --- | --- | --- | --- |
| COCCn1c(C)c(C)s/c1=N\C(=O)C1C(C)(C)C1(C)C [A-836339, 2,2,3,3-tetramethyl-cyclopropanecarboxylic acid [3-(2-methoxy-ethyl)-4,5-dimethyl-3H-thiazol-(2Z)-ylidene]-amide, reference compound] | agonist | – | – | – | – | – | – |
| CCCCCCC(C)(C)c1ccc([C@@H]2C[C@H](O)CC[C@H]2CCCO)c(O)c1 [CP55,940, 2-[(1R,2R,5R)-5-Hydroxy-2-(3-hydroxypropyl)cyclohexyl]-5-(2-methyloctan-2-yl)phenol, reference compound] | – | 275 ± 4 | – | – | – | – | – |
| CC(=O)OCCn1c(C)c(C)s/c1=N\C(=O)C1C(C)(C)C1(C)C [MRI-2594] | agonist | 276 ± 4 | 90 | full agonism | 31 | – | Pharmacological category in GEF assay (cannabinoid receptor CB2; [3]): (less-strong) agonist; Pharmacological category in GEF assay (cannabinoid receptor CB2; [4]): full agonist; also recorded: strong agonist |
| COc1ccc2c(c1)sc(=NC(=O)C1C(C)(C)C1(C)C)n2CCOC(C)=O [MRI-2653, 2-(6-Methoxy-2-((2,2,3,3-tetramethylcyclopropane-1-carbonyl)imino)benzo[d]thiazol-3(2H)-yl)ethyl acetate] | – | -46 ± 2 | 500 ± 90 | inverse agonism | 94 ± 11 | 55 | – |
| CC(=O)OCCn1c(=NC(=O)C2C(C)(C)C2(C)C)sc2cc(Br)ccc21 [MRI-2654, 2-(6-Bromo-2-((2,2,3,3-tetramethylcyclopropane-1-carbonyl)imino)benzo[d]thiazol-3(2H)-yl)ethyl acetate] | – | -23 ± 3 | 760 ± 40 | inverse agonism; also recorded: inverse agonist | 79 ± 9 | 55 | – |
| CC(=O)OCCn1c(=NC(=O)C2C(C)(C)C2(C)C)sc2cc(OC(F)(F)F)ccc21 [MRI-2659, 2-(2-((2,2,3,3-tetramethylcyclopropane-1-carbonyl)imino)-6-(trifluoromethoxy)benzo[d]thiazol-3(2H)-yl)ethyl acetate] | – | -55 ± 1 | 250 ± 100 | inverse agonism | 53 ± 10 | 55 | Pharmacological category in GEF assay (cannabinoid receptor CB2; [3]): strong inverse agonist; Pharmacological category in GEF assay (cannabinoid receptor CB2; [4]): strong inverse agonist |
| CC(=O)OCCn1c(=NC(=O)C2C(C)(C)C2(C)C)sc2cc(C)ccc21 [MRI-2687, 2-(6-methyl-2-((2,2,3,3-tetramethylcyclopropane-1-carbonyl)imino)benzo[d]thiazol-3(2H)-yl)ethyl acetate] | inverse agonist | -35 ± 1 | 1230 ± 90 | inverse agonism | 100 ± 10 | 55 | – |
| CCCCCc1cc(O)c2c(c1)OC(C)(C)[C@@H]1CCC(C)=C[C@@H]21 [THC, Δ^9-tetrahydrocannabinol] | – | – | – | – | – | – | CB2 activity in suppressing interferon-γ-induced activation of microglia (microglia): full CB2 agonist; CB2 activity on 2-AG-induced migration of natural killer cells (natural killer cells): no CB2 agonist activity and acted as a CB2 antagonist |
| CC(C)CCC[C@@H](C)[C@H]1CC[C@H]2[C@@H]3CC=C4C[C@@H](O)CC[C@]4(C)[C@H]3CC[C@]12C [cholesterol] | – | – | – | – | – | – | Effect on constitutive (basal) activity of the CB2 receptor (cannabinoid receptor CB2; cell membrane preparations and liposomes): increases |
| methyl-β-cyclodextrin [MβCD, reference compound] | – | – | – | – | – | – | Effect on rates of activation of G protein on CB2 (cannabinoid receptor CB2; Expi293F membranes treated with 20 mM MβCD): decreased by about twofold |
